# PubChem BioAssay (NCI)
#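 Tested at 5 concentrations; 48 h exposure; 96-well plates; endpoints linearly interpolated, else capped at highest concentration. GI50 = concentration required for 50% inhibition of growth. TGI marks complete inhibition of growth.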
# Tested on: MDA-MB-468 breast
# Experiment: NCI-60 cell line screen, 48 h
Structure (SMILES),GI50 [nM],TGI [nM]
Nc1ncc(-c2cccc(S(N)(=O)=O)c2)c2scc(-c3ccc(F)c(Cl)c3)c12,5130,15700
CC(C)(C)c1ccc(NS(=O)(=O)c2ccc3nc(NC(=O)c4cnccn4)[nH]c3c2)cc1,712,4270
C=C1C(=O)O[C@H]2[C@H]1CC/C(COC(=O)NCc1ccc(Cn3c(=O)sn(-c4ccccc4)c3=O)cc1)=C\CC[C@@]1(C)O[C@@H]21,1170,2850
Oc1ccc(N=Nc2ccccn2)c(O)c1,681,4650
Cc1ccc(-c2cc(O)c(-c3ccc(C)cc3C)cc2O)c(C)c1,1750,13500
CC(=C/c1ccccc1)/C=C1/NC(=S)N(/C=C2\C(=O)Oc3ccccc3C2=O)C1=O,26900,> 100000
Cc1cc(Nc2cc(N)ncn2)c(=O)n2c1C(=O)NC21CCCCC1,94900,> 100000
COc1ccc(-c2nn(-c3ccc(NC(=O)Nc4ccc(Cl)c(C(F)(F)F)c4)cc3)cc2-c2ccncc2)cc1Cl,1180,3110
COc1cc(-c2csc(NC(=O)Nc3cc(Cl)cc(Cl)c3)n2)cc(OC)c1OC,1670,3820
C[C@@H]1COCCN1c1cc(C2(O)C[C@H]3CC[C@@H](C2)O3)c2cnn(-c3ccn[nH]3)c2n1 (stereo not given in full),113,545
COc1c(B(O)O)cc(F)cc1-c1nc2ccc3[nH]ncc3c2c2c1CCCC2,1510,4210
CCCCCCCCCCCCCCCC1=NC(C)(C)CN1C(C)C,1320,2660
CN(C)CCCn1c(-c2nonc2N)nc2cnccc21,–,> 25000
O=C(NC(=S)Nc1cc(Cl)ccc1O)c1cccc(Br)c1,5250,> 100000
CCN(c1cc(C#CCN2CCOCC2)cc(C(=O)NCc2c(C)cc(C)[nH]c2=O)c1C)C1CCC(N(C)CCOC)CC1 (stereo not given),> 100000,> 100000
Cc1c(Cl)cccc1NC(=O)c1sc2nc3c(cc2c1N)CCCCC3,165,29600
CC#Cc1nc(Nc2cc(C)[nH]n2)c2ccccc2n1,2470,6400
CCCCCn1c(C)cc(/C=C\c2ccc3cc(C)ccc3[n+]2C)c1C,13.3,52.3
CCN(Cc1c(Cl)cccc1Cl)c1ccc(CO)c(Cl)c1,–,33
CC[C@H](C)C(=O)O[C@H]1C[C@H](O)C=C2C=C[C@H](C)[C@H](CC[C@@H](O)C[C@@H](O)CC(=O)O)[C@H]21,> 100000,> 100000

Structure (SMILES),GI50 [nM],TGI [nM]
COc1ccc2nc3cc(Cl)ccc3c(NCCNc3c4ccc(Cl)cc4nc4ccc(OC)cc34)c2c1,1800,3780
C[C@@H](Nc1nc(Nc2ccc(F)c(Cl)c2)nc2ccccc12)C1CC1,1350,3740
CC1(C)C(=O)/C(=C\c2cccnc2)C[C@]2(C)[C@H]3CC[C@@H]4[C@@H](C(=O)/C=C/c5ccncc5)CC[C@@]4(C)[C@]3(C)CC[C@@H]12,1720,3670
O=c1ccc2nc(-c3ccccn3)nn(-c3ccccc3)c-2c1,1440,3450
O=C(CCCCC(=O)N/N=C\c1ccccc1O)N/N=C\c1ccccc1O,2630,> 100000
COc1ccc2ccc3oc([N+](=O)[O-])cc3c2c1,168,381
CCN(CC)c1ccc(/C=C/C=C2\NC(=O)NC2=O)cc1,1820,7260
O=c1oc2c(C(F)(F)F)cccc2cc1-c1csc(Nc2ccc(OCCF)cc2)n1,40.1,12400
CC(=O)c1cc(O)c2ccccc2c1O,17500,33400
N#CC1C=Cc2c(ccc3ccccc23)N1C(=O)c1ccccc1 (stereo not given),43.2,218
Cc1cc(C(=O)c2ccccc2)c(C)c2c1[nH]c1ccc(Cl)cc12,33.9,1120
COc1ccc(Cn2cc3c(c2-c2cc(OC)c(OC)c(OC)c2)CCc2cnoc2-3)cc1,171,622
Cn1cc(C2=C(N3CCOCC3)C(=O)NC2=O)c2ccccc21,> 25000,> 25000
CNCCN=c1ccc2c3c1c(O)c1c(O)ccc(=O)c1c3[nH]n2CCNCCO,63.4,435
CC(=O)c1nc2ccccc2n1CC(=O)c1cccc(Cl)c1,328,–
O=C1OCC2=C1C(c1ccccc1)c1cc3c(cc1N2CCO)OCCO3 (stereo not given),138,959
Nc1c(C(=O)Nc2cccc(Cl)c2Cl)sc2nc3c(cc12)C(=O)CCC3,786,> 100000
Cc1cccc(Cc2cnc(NC(=O)CCc3ccc(C)o3)s2)c1,112,6560
C=CC(COC(c1ccccc1)(c1ccccc1)c1ccccc1)N(CC)CC (stereo not given),2430,6750
